Values quoted from earlier work, collected in PMC8536644, “Enigmatic mechanism of the N-vinylpyrrolidone hepatocarcinogenicity in the rat” (Archives of Toxicology, 2021).

Test system: CYP2B
Conditions: ref Waxmann [1999]; Lubet et al. [1985]; Tompkins and Wallac [2007]; cited from earlier work

CCC1(c2ccccc2)C(=O)NC(=O)NC1=O [phenobarbital]
Increase of hepatic PROD activities: 50 to 140 fold
